In ChEMBL document CHEMBL1201862, “PubChem BioAssay data set” (2004):
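Each compound was tested at five concentrations against cells in 96-well plates for 48 hours. Abbreviation: GI50, concentration required for 50% inhibition of growth.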 The source made the active and inactive calls. Rule as the data show it: active = GI50 up to about 1.1 µM and inactive = higher.

What was measured:
Assay in all cases: NCI tumour cell line growth inhibition, 48 h
UACC-62 = test system: UACC-62
MOLT-4 = test system: MOLT-4
DU-145 = test system: DU-145
SN12C = test system: SN12C
HL-60 = test system: HL-60
PC-3 = test system: PC-3
NCI-H522 = test system: NCI-H522
OVCAR-3 = test system: OVCAR-3
COLO 205 = test system: COLO 205
CAKI-1 = test system: CAKI-1
OVCAR-8 = test system: OVCAR-8
SF-268 = test system: SF-268
SR = test system: SR
Malme-3M = test system: Malme-3M
NCI-H226 = test system: NCI-H226
Hs-578T = test system: Hs-578T
MDA-MB-231 = test system: MDA-MB-231
RXF 393 = test system: RXF 393
HOP-62 = test system: HOP-62
SK-OV-3 = test system: SK-OV-3

Measured: GI50

N#CC(NNC(=O)Cc1ccccc1)c1ccccc1O (stereo not given)
inactive: UACC-62 5.28 µM | MOLT-4 3.72 µM | DU-145 20.8 µM | SN12C 23.3 µM | HL-60 3.35 µM | PC-3 5.79 µM | NCI-H522 4.88 µM | OVCAR-3 3.75 µM | COLO 205 12.1 µM | CAKI-1 12.6 µM | OVCAR-8 12.3 µM | SF-268 9.04 µM | SR 7.29 µM | Malme-3M 16.3 µM | NCI-H226 17.3 µM | Hs-578T 56.2 µM | MDA-MB-231 8.2 µM | RXF 393 24.7 µM | HOP-62 15.8 µM | SK-OV-3 14.5 µM

O=C(c1ccc([N+](=O)[O-])cc1)C(Br)C(Br)c1ccnc2ccccc12 (stereo not given)
inactive: UACC-62 9.4 µM | MOLT-4 2.94 µM | DU-145 11.8 µM | SN12C 4.46 µM | HL-60 2.8 µM | PC-3 7.29 µM | NCI-H522 1.86 µM | OVCAR-3 6.32 µM | COLO 205 13 µM | CAKI-1 12.2 µM | OVCAR-8 9.08 µM | SF-268 13 µM | SR 2.24 µM | Malme-3M 12.5 µM | NCI-H226 10.9 µM | Hs-578T 6.15 µM | MDA-MB-231 13.1 µM | RXF 393 8.93 µM | HOP-62 13.9 µM | SK-OV-3 17.8 µM
